Assay results reported in patent US6025343A, “Lipid esters of nucleoside monophosphates and their use as immunosuppressive drugs” (Roche Diagnostics GmbH, priority 1994, dated 2000).
Like-named read-outs stand apart in the source and are kept apart here.

How the values were obtained:
[1] = test system: murine bone marrow stern cells, colony-forming units/erythrocytes (CFU-E); assay: CFU-E assay, in vitro cytotoxicity / bone marrow toxicity; assay type: cell-based; conditions: for IC50: Mus musculus, Erythrocyte
Method: (§1) The cytostatic/cytotoxic compound Doxorubicin was also included as reference substance. All compounds were tested in 3-6 different experiments concentration dependently with,at least, doublicate or triplicate inclubations per concentration tested.
(§2) For assay conditions, please refer to description of Example 7.

[2] = test system: L 1210 leukemia; assay: Influence on the L 1210 leukemia in vivo: survival time; design: species or system mice
Method: Mice were inoculated with L 1210 leukemia cells on day 0 (n=10 animals/group) and w ere then treated once daily i.p. from day 0 (+1 h)-day +41 (6 weeks) with the weekly cycles indicated on FIGS. 1 and 2, respectively.

[3] = test system: murine bone marrow stern cells, colony-forming units/granulocytes-macrophages (CFU-GM); assay: CFU-GM assay, in vitro cytotoxicity / bone marrow toxicity; assay type: cell-based; conditions: for IC50: Mus musculus, in vitro
Method: as §1, §2

[4] = in vitro, mean, Example 10, read-out: Bone marrow toxicity CFU-E, mean IC50
[5] = CFU-GM, mean, Example 10, read-out: Bone marrow toxicity CFU-GM, mean IC50
[6] = in vitro, mean ± SEM, Example 7, read-out: IC50 CFU-E
[7] = CFU-GM, mean ± SEM, Example 7, read-out: IC50 CFU-GM
[8] = 5-FU-DMDOPE compared to 5-FU, table

Structure (SMILES) | IC50 [1, 4] [nM] | IC50 [3, 5] [nM] | IC50 [1, 6] [ng/mL] | IC50 [3, 7] [ng/mL] | other results
O=c1[nH]c(=O)n([C@@H]2O[C@H](CO)[C@@H](O)[C@H]2O)cc1F [Example 5-FU, 5-Fluorouridine, reference compound] | 0.61 | 4.96 | – | – | dose-efficacy profile ([2]; i.p. once daily, weekly cycles, day 0 (+1 h)-day +41, FIG. 2): very narrow dose-efficacy profile; survival rates on increasing the dose ([2]; i.p., from 2×10/5×0.1 to 2×10/5×0.3 mg kg^-1 day^-1 or even higher doses, FIG. 2): reduced survival rates
COc1cccc2c1C(=O)c1c(O)c3c(c(O)c1C2=O)C[C@@](O)(C(=O)CO)C[C@@H]3O[C@H]1C[C@H](N)[C@H](O)[C@H](C)O1 [Doxorubicin, reference compound] | – | – | 1.7 | 50 | –
Sc1ncnc2nc[nH]c12 [6-Mercaptopurine, reference compound] | – | – | 0.3 | 2.3 | –
CCCCCCCCCCCCSCC(COP(=O)(O)OC[C@H]1O[C@@H](n2cc(F)c(=O)[nH]c2=O)[C@H](O)[C@@H]1O)OCCCCCCCCCC (some centres unmarked) [Example 5-FU-DMDOPE, (5-Fluorouridine) -5'-phosphoric acid (3-dodecylmercapto 2 decyloxy) propyl ester] | 372 | 1180 | – | – | Bone marrow toxicity CFU-E, ratio to 5-FU [1, 8]: 610 ×; less toxic on erythrocyte bone marrow stem cells compared to 5-FU ([1]; CFU-E): 610 times; toxicity on bone marrow cells compared to 5-FU ([1]; in words, CFU-E and CFU-GM): much less toxic on bone marrow cells; therapeutic index/ratio compared to 5-FU ([2]; concluded from efficacy (FIGS. 1 and 2) and bone marrow toxicity): much higher therapeutic index/ratio; survival time compared to control I and II ([2]; i.p. once daily, weekly cycles, day 0 (+1 h)-day +41, FIG. 1): clear dose-dependent increase in survival time; efficacy compared to 5-FU ([2]; leukemia model, equimolar doses, FIGS. 1 and 2): clearly more effective; Bone marrow toxicity CFU-GM, ratio to 5-FU [3, 8]: 238 ×; less toxic on granulocyte/macrophage bone marrow stem cells compared to 5-FU ([3]; CFU-GM): 238 times
CCCCCCCCCCCCSCC(COP(=O)(O)OC[C@H]1O[C@@H](n2cnc3c(S)ncnc32)[C@H](O)[C@@H]1O)OCCCCCCCCCC (stereo partly drawn) [Example 6-MPR-DMDOPE, (6-Mercaptopurine-9-β-D-ribofuranoside)-5'-phosphoric acid (3-dodecylmercapto-2-decyloxy) propyl ester] | – | – | 56 | 247 | tolerability by bone marrow stem cells ([1]; in vitro, CFU-E and CFU-GM, compared to Azathioprine, 6-MP, 6-Mercaptopurinriboside, Doxorubicin): much better tolerated by the bone marrow stern cells compared to all other compounds tested
OC[C@H]1O[C@@H](n2cnc3c(S)ncnc32)[C@H](O)[C@@H]1O [6-Mercaptopurinriboside, reference compound] | – | – | 0.3 | 2.3 | –
